This is an account of results in patent publication US20220395468A1, “Transdermal Drug Delivery Systems for Administration of a Therapeutically Effective Amount of Lenalidomide and Other Immunomodulatory Agents” (Starton Therapeutics, Inc., priority 2021, published 2022).

The conditions of data set [1]: cited from earlier work.
The conditions of data set [2]: cited from earlier work. This is another data set of the same source.
The conditions of data set [3]: people with high-risk SMM, oral; cited from earlier work.
The conditions of data set [4]: FIG. 10. The method, then:
In vitro permeability of lenalidomide through human cadaver skin was conducted using in vitro franz diffusion cells to identify potential permeation enhancers for lenalidomide. Donor compartment was loaded with Lenalidomide solution or gel.
Lenalidomide H1 solutions were prepared in following different solvents Lactic acid, Dimethyl sulfoxide, NMP, Levulinic acid, Super refined PEG 400, Tween 40, Polysorbate 80.
Lenalidomide gels were prepared using a following solvent system composition (Table 7). Gels were made with 10 different permeation enhancers.

How the values of data set [5] were obtained: Next, the solubility of lenalidomide H1 was determined in silicone polymer-based pressure sensitive adhesives and acrylic polymer-based pressure sensitive adhesives. Pressure sensitive adhesive polymers are the major component of the pressure sensitive adhesives matrix patches and typically constitute 50%-85% of the formulation.
The source holds these as a separate data set.

The structures appear in SMILES notation. Where two headings read alike, the source gives them in different places. A value given as a limit tells only on which side of the number the result lay.

Usually log P stands for a log measure of how a compound divides between an organic and an aqueous phase. As for `Nc1cccc2c1CN(C1CCC(=O)NC1=O)C2=O` (stereo not drawn) [Lenalidomide, 3-(4-amino-1-3-dihydro-1-oxo-2H-isoindol-2yl)-2,6-piperidinedione], the “log P” value in data set [1] is −0.4. Moreover, in data set [2], the “solubility of the LLD in solution” value was 400 to 500 µg/mL. The Solubility by setting is: (in DMSO, room temperature) 10-20%; (in NMP, room temperature) “about 30 % w/w”; (in esters) “less than 0.5%”; (in glycols) “less than 2%”; (in two organic acids, Lactic acid and levulinic acid) “more than 5%”. For the same molecule, the “discontinued due to drug-related side effects” value in data set [3] was 40%. Further, the three-year progression-free survival in data set [3] was 91%.

Regarding `Nc1cccc2c1CN(C1CCC(=O)NC1=O)C2=O` (stereo not drawn) [Lenalidomide H1], the “rate of lenalidomide permeation” value was “highest rate” in data set [4] (solution in Lactic acid); “negligible permeation” in data set [4] (solution in Levulinic acid); “followed by NMP and DMSO” in data set [4] (solutions in NMP and DMSO); “insignificant to no permeation” in data set [4] (solutions in SR PEG 400, TWEEN 40, Polysorbate 80). Moreover, the “Lenalidomide H1 solubility” value in data set [5] (in BIO-PSA 7-4202 (silicone PSA)) is on record as “Less than 0.5% W/W”; in data set [5] (in Duro-Tak 87-2052 (acrylic PSA)), “Less than 0.5% W/W”; in data set [5] (in Duro-Tak 87-2074 (acrylic PSA)) it was “Less than 0.5% W/W”; in data set [5] (in Duro-Tak 87-2194 (acrylic PSA)) it was “Less than 0.5% W/W”; in data set [5] (in Duro-Tak 87-2516 (acrylic PSA)), “approximately 0.5% W/W”; in data set [5] (in Duro-Tak 87-2852 (acrylic PSA)) it was “Less than 0.5% W/W”. Moreover, the “Lenalidomide H1 solubility” value in data set [5] (in Duro-Tak 87-4098 (acrylic PSA)) and in data set [5] (in Duro-Tak 87-9301 (acrylic PSA)) was “Less than 0.5% W/W” throughout. For the same molecule, the Solubility by setting is: (Aquasolve HPMC-AS MF (0.25 G) + Solvent system Acetone:Methanol (1:1)) 1.2 % W/W; (Eudragit + Solvent system Acetone:Methanol (1:1)) 0.9 % W/W; (Kollidon 30 (0.5 G) + Solvent system Acetone:Methanol (1:1)) 2.2 % W/W; (Kollidon 90 F (0.5 G) + Solvent system Acetone:Methanol (1:1)) 2.0 % W/W; (Kollidon VA 64 (0.5 G) + Solvent system Acetone:Methanol (1:1)) 2.1 % W/W; (Kollisolv P124 Geismer (0.27 G) + Solvent system Acetone:Methanol (1:1)) 0.9 % W/W. Besides, the Solubility is, setting by setting: (in Acetone) 0.2 % W/W; (in Acetonitrile) 0.3 % W/W; (in Dimethyl sulfoxide) 20.7 % W/W; (in Ethanol 190 Proof) 0.2 % W/W; (in Ethyl acetate) less than 0.1 % W/W; (in Heptane) less than 0.1 % W/W. In addition, the Solubility is, setting by setting: (in Isooctadecanoic acid) less than 0.1 % W/W; (in Lactic acid) 9.3 % W/W; (in Lauryl Lactate) 0.1 % W/W; (in Levulinic acid) 5.5 % W/W; (in Methanol) 0.3 % W/W; (in Methanol:Acetone (1:1)) 0.9 % W/W. Also, the Solubility is listed as less than 0.1 % W/W (in Methyl Laurate); 29.3 % W/W (in NMP); 0.4 % W/W (in Propylene Glycol); less than 0.1 % W/W (in Propylene Glycol monolaurate); 1.6 % W/W (in Super refined PEG 400); less than 0.1 % W/W (in Toluene).
